Measurements: patent US5130302A, “Boronated nucleoside, nucleotide and oligonucleotide compounds, compositions and methods for using same” (Boron Bilogicals, Inc., priority 1989, dated 1992)
≈ marks a conversion by molar mass, not a printed value. Read-outs that look alike come from different tables or passages of the source.

Legend:
[1] = tested on: L1210 lymphoid leukemia cells; experiment: Cytotoxicity, L1210 lymphoid leukemia cells; format: cell-based; settings: Mus musculus, read-out: ED50 (cytotoxicity), L1210
Protocol: (§1) More specifically, the cytotoxic activity of the boron adducts of the present invention was tested on the following neoplastic cell lines:
1. L1210 lymphoid leukemia cells, R. Geran et al., Cancer Chemotherapy Reports 3, 7 (1972).(grown in RPMI+15% FBS+antibiotics).
(§2) The cytotoxic screens were conducted according to NIH protocols, see E. Huang et al., J. Pharm. Sci. 61, 108 (1972), with 10^4 cells, growth medium, antibiotics and drugs from 0.5 to 100 μg/ml final concentration. For the L1210, Hela-S, amd Tmolt, (i.e. the suspended cells), the incubations were conducted in sterile test tubes in a final volume of 1 ml for 72 hr at 37° C. in a CO2 incubator. The cells on the third day were still in log growth phase. The number of cells/ml are determined using trypan blue exclusion and a hemocytometer. See, e.g., R. Geran, supra. For solid tumors there is plated out in wells 1×10^4 cells with 1 ml of medium+antibiotics and the other components of growth. When the controls have converged (≈95%) then the density of the cells is estimated and the ED50 values calculated.

[2] = tested on: SW480 human colorectal carcinoma; experiment: Cytotoxicity, colon adenocarcinoma SW480 human colorectal carcinoma; format: cell-based
Protocol: as §1
3. Colon adenocarcinoma SW480 human colorectal carcinoma. A. Leibovitz et al., Cancer Res. 36, 4562 (1976) (grown in L15+10% FBS).
as §2

Hela-S = experiment: Cytotoxicity, Hela-S cervical carcinoma suspended; format: cell-based; settings: Homo sapiens, read-out: ED50 (cytotoxicity), Hela-S
Protocol: 7. Hela-S, ATCC-CCL 2.2, cervical carcinoma suspended, S. Schreiber and N. Ikemoto, supra; T. Puck et al., J. Exp. Med. 103. 273 (1956) (grown in Joklik+5% FBS, Ham's F12 +5% FBS).
as §2

[3] = tested on: Lung bronchogenic MB-9812; experiment: Cytotoxicity, lung bronchogenic MB-9812; format: cell-based; settings: read-out: ED50 (cytotoxicity), Lung Bronchogenic
Protocol: 4. Lung bronchogenic MB-9812, S. Aronson et al., Expt. Cell Res. 61, 1 (1970) (grown in EMEM+10% FBS+NEAA).
as §2

P388 = experiment: Cytotoxicity, P388; format: cell-based
Protocol: as §2

[4] = tested on: Human glioma cell EH 118 MG; experiment: Cytotoxicity, human glioma cell EH 118 MG; format: cell-based; settings: read-out: ED50 (cytotoxicity), Glioma
Protocol: 9. Human glioma cell EH 118 MG transformed stain of Rous sarcoma virus, J. Lutton et al., J. Biol. Chem. 254, 11181 (1979) (grown in DMEM-H+10% FCS).
as §2

[5] = tested on: KB epidermoid oral nesopharnyx; experiment: Cytotoxicity, KB epidermoid oral nasopharynx; format: cell-based; settings: Homo sapiens, read-out: ED50 (cytotoxicity), KB
Protocol: 6. KB epidermoid oral nesopharnyx. R. Geran, supra: H. Eagle, Proc. Soc. Expt.
Biol. 89, 362 (1955)(grown in EMEM +5% calf serum).
as §2

Human Osteosarcoma TE418 = experiment: Cytotoxicity, human osteosarcoma TE418; format: cell-based
Protocol: 5. Human Osteosarcoma TE418. H. Smith et al., Int. J. Cancer 17, 219 (1976) (grown in DMEM+10% FBS).
as §2

[6] = tested on: Tmolt acute lymphoblastic T cell leukemia; experiment: Cytotoxicity, Tmolt acute lymphoblastic T cell leukemia; format: cell-based; settings: for IC50: T-cell, read-out: ED50 (cytotoxicity), Tmolt; for activity in T molt-3 screen: in words
Protocol: as §1
2. Tmolt^S acute lymphoblastic T cell leukemia, S. Schreiber and N. Ikemoto, Tett. Lett 29, 3211 (1988) (grown in RPMI - 1640+10% FBS).
as §2

[7] = Stability in aqueous medium by HPLC; format: physicochemical; settings: for stability in aqueous medium: in words
Protocol: By HPLC, compounds 3a, 3b, and 3d in aqueous medium (0.01 M TEAAc) are >94% stable over a period of 168 h. […], however, is >50% decomposed during this period.

[8] = tested on: Serum triglyceride levels; experiment: Antihyperlipidemic activity, serum triglyceride; format: in vivo, male CF1 mice; settings: 8 mg/kg/day; intraperitoneal, bled on day 16; mice
Protocol: (§3) Compounds to be tested were suspended in 1% aqueous carboxymethylcellulose,homogenized and administered to male CF1 mice (25 g) intraperitoneally for 16d. On days 9 and 16, blood was obtained by tail vein bleeding, and the serum was separated by centrifugation for three minutes. The serum cholesterol levels were determined by a modification of the Liebermann--Burchard reaction in accordance with known techniques. See A. Ness, et al., Clin. Chim. Acta 10, 229 (1964). Serum triglyceride levels were determined with a commercial kit, the Fisher Hycel Triglyceride Test Kit, for a different group of animals bled on day 16.

inflammatory response = experiment: Anti-inflammatory activity, carrageenan-injected hind foot; format: in vivo, CF1 male mice; settings: 8 mg/kg/day; intraperitoneal, 3 hours and 30 minutes prior to carrageenan; mice
Protocol: CF1 male mice (~25 g) were administered test drugs at 5-40 mg/kg in 0.05% Tween 80--H2 O intraperitoneally 3 hours prior to and 30 minutes prior to the injection of 0.2 ml of 1% carrageenan in 0.9% saline into the plantar surface of the right hind foot. Saline was injected into the left hind foot, which serves as a base line. After 3 hours, both feet were excised at the tibiotarsal (ankle) joint according to standard procedures. See C. Winter et al., Proc. Soc. Expt. Biol Med. 544, 111 (1962); A. Roszkawski et al., J. Pharm. Exp. Ther. 179, 114 (1971). Control mice afforded a 78±3 mg increase in paw weight.

serum cholesterol levels = experiment: Antihyperlipidemic activity, serum cholesterol; format: in vivo, male CF1 mice; settings: 8 mg/kg/day; intraperitoneal for 16d; mice
Protocol: as §3

[9] = Homo sapiens, SW480, read-out: ED50 (cytotoxicity), Adeno Carcinoma SW480
[10] = Mus musculus, P388, read-out: ED50 (cytotoxicity), P388
[11] = read-out: ED50 (cytotoxicity), Osteo sarcoma
[12] = Homo sapiens, SW480; read-out: ED50 (cytotoxicity), Adeno Carcinoma SW480
[13] = Mus musculus, P388; read-out: ED50 (cytotoxicity), P388
[14] = Osteosarcoma TE418, read-out: ED50 (cytotoxicity), Osteo sarcoma

Q: For CC(C)[Si](OC[C@H]1O[C@@H](n2c[n+]([BH2-]C#N)c3c(=O)[nH]c(N)nc32)C[C@@H]1O[Si](C(C)C)(C(C)C)C(C)C)(C(C)C)C(C)C [Compound 2a, 3',5'-O-Bis(triisopropylsilyl)-2'-deoxyguanosine N7-cyanoborane], which IC50 ([1]; L1210, 72 h) is on record?
A: 6.05 µg/mL (≈ 9.78 µM)

Q: And the IC50 [2, 9]?
A: 2.67 µg/mL (≈ 4.31 µM)

Q: And the IC50 (Hela-S; HeLa, 72 h)?
A: 2.83 µg/mL (≈ 4.57 µM)

Q: And the IC50 [3]?
A: 4.05 µg/mL (≈ 6.55 µM)

Q: What about the IC50 (P388; [10]) of the same compound?
A: 5.13 µg/mL (≈ 8.29 µM)

Q: And the IC50 [4]?
A: 7.61 µg/mL (≈ 12.3 µM)

Q: What about the IC50 [5] of the same compound?
A: 2.67 µg/mL (≈ 4.31 µM)

Q: What about the IC50 (Human Osteosarcoma TE418; [11]) of the same compound?
A: 7.2 µg/mL (≈ 11.6 µM)

Q: What about the IC50 ([6]; 72 h) of the same compound?
A: 2.26 µg/mL (≈ 3.65 µM)

Q: Which IC50 ([1]; L1210, 72 h) does the source give for CC(C)[Si](OC[C@H]1O[C@@H](n2ccc(N)[n+]([BH2-]C#N)c2=O)C[C@@H]1O)(C(C)C)C(C)C [Compound 4] here?
A: 2.92 µg/mL (≈ 6.91 µM)

Q: And the IC50 [2, 9]?
A: 2.71 µg/mL (≈ 6.42 µM)

Q: What about the IC50 (Hela-S; HeLa, 72 h) of the same compound?
A: 3.63 µg/mL (≈ 8.59 µM)

Q: What about the IC50 [3] of the same compound?
A: 5.58 µg/mL (≈ 13.2 µM)

Q: What about the IC50 [4] of the same compound?
A: 3.43 µg/mL (≈ 8.12 µM)

Q: And the IC50 [5]?
A: 4.07 µg/mL (≈ 9.64 µM)

Q: And the IC50 (Human Osteosarcoma TE418; [11])?
A: 6.62 µg/mL (≈ 15.7 µM)

Q: What about the IC50 ([6]; 72 h) of the same compound?
A: 2.34 µg/mL (≈ 5.54 µM)

Q: With N#C[BH2-][n+]1cnc2c(ncn2[C@H]2C[C@H](O)[C@@H](CO)O2)c1N [Compound 3c, 2'-Deoxyadenosine-N1-cyanoborane] as the compound, how does the IC50 ([1]; L1210, 72 hr at 37° C.) read?
A: 3.68 µg/mL (≈ 12.7 µM)

Q: And the IC50 [2, 12]?
A: 2.82 µg/mL (≈ 9.72 µM)

Q: What about the “activity in human colorectal adenocarcinoma screen” value ([2]; in words) of the same compound?
A: potent activity

Q: What about the “stability in aqueous medium” value [7] of the same compound?
A: good stability

Q: And the IC50 (Hela-S; Hela-S, 72 hr at 37° C.)?
A: 2.35 µg/mL (≈ 8.1 µM)

Q: And the “Hypolipidemic: Triglyceride Inhibition, % inhibition” value [8]?
A: 37%

Q: And the IC50 ([3]; Lung bronchogenic MB-9812)?
A: 5.26 µg/mL (≈ 18.1 µM)

Q: And the IC50 (P388; [13])?
A: 5.96 µg/mL (≈ 20.5 µM)

Q: And the IC50 ([4]; Glioma EH 118 MG)?
A: 6.88 µg/mL (≈ 23.7 µM)

Q: And the “Antiinflammatory Activity, % inhibition” value (inflammatory response)?
A: 22%

Q: And the “Hypolipidemic: Cholesterol Inhibition, % inhibition” value (serum cholesterol levels)?
A: 44%

Q: What about the IC50 [5] of the same compound?
A: 3.12 µg/mL (≈ 10.8 µM)

Q: And the IC50 (Human Osteosarcoma TE418; [14])?
A: 7.39 µg/mL (≈ 25.5 µM)

Q: What about the IC50 ([6]; Tmolt, 72 hr at 37° C.) of the same compound?
A: 1.36 µg/mL (≈ 4.69 µM)

Q: And the “activity in T molt-3 screen” value [6]?
A: potent activity

Q: Which IC50 ([1]; L1210, 72 hr at 37° C.) does the source give for N#C[BH2-][n+]1c(N)ccn([C@H]2C[C@H](O)[C@@H](CO)O2)c1=O [Compound 3d, 2' Deoxycytidine-N3-cyanoborane] here?
A: 2.61 µg/mL (≈ 9.81 µM)

Q: What about the IC50 [2, 12] of the same compound?
A: 2.96 µg/mL (≈ 11.1 µM)

Q: And the “activity in human colorectal adenocarcinoma screen” value ([2]; in words)?
A: potent activity

Q: And the remaining at 168 h ([7]; 0.01 M TEAAc, period of 168 h, HPLC, read-out: stable in aqueous medium)?
A: > 94%

Q: What about the “stability in aqueous medium” value [7] of the same compound?
A: good stability

Q: What about the IC50 (Hela-S; Hela-S, 72 hr at 37° C.) of the same compound?
A: 3.37 µg/mL (≈ 12.7 µM)

Q: And the “Hypolipidemic: Triglyceride Inhibition, % inhibition” value [8]?
A: 23%

Q: And the IC50 ([3]; Lung bronchogenic MB-9812)?
A: 3.73 µg/mL (≈ 14 µM)

Q: And the IC50 (P388; [13])?
A: 3.17 µg/mL (≈ 11.9 µM)

Q: And the IC50 ([4]; Glioma EH 118 MG)?
A: 4.39 µg/mL (≈ 16.5 µM)

Q: What about the “Antiinflammatory Activity, % inhibition” value (inflammatory response) of the same compound?
A: 52%

Q: And the “Hypolipidemic: Cholesterol Inhibition, % inhibition” value (serum cholesterol levels)?
A: 38%

Q: And the IC50 [5]?
A: 5.46 µg/mL (≈ 20.5 µM)

Q: What about the IC50 (Human Osteosarcoma TE418; [14]) of the same compound?
A: 4.63 µg/mL (≈ 17.4 µM)

Q: And the IC50 ([6]; Tmolt, 72 hr at 37° C.)?
A: 1.13 µg/mL (≈ 4.25 µM)

Q: What about the “activity in T molt-3 screen” value [6] of the same compound?
A: potent activity

Q: Which results are given for CC(C)[Si](OC[C@H]1O[C@@H](n2cnc3c(N)[n+]([BH2-]C#N)cnc32)C[C@@H]1O[Si](C(C)C)(C(C)C)C(C)C)(C(C)C)C(C)C [Compound 2c, 3', 5'-O-Bis(triisopropylsilyl)-2'-deoxyadenosine-N1-cyanoborane]?
A: IC50 ([1]; L1210, 72 h): 6.86 µg/mL (≈ 11.4 µM); IC50 [2, 9]: 2.87 µg/mL (≈ 4.76 µM); IC50 (Hela-S; HeLa, 72 h): 3.42 µg/mL (≈ 5.67 µM); IC50 [3]: 5.58 µg/mL (≈ 9.26 µM); IC50 (P388; [10]): 7.46 µg/mL (≈ 12.4 µM); IC50 [4]: 4.99 µg/mL (≈ 8.28 µM); IC50 [5]: 5.79 µg/mL (≈ 9.61 µM); IC50 ([6]; 72 h): 1.88 µg/mL (≈ 3.12 µM)
